From patent US20110224276A1, “OPTICAL ISOMER OF PHENYLPROPIONIC ACID AND ITS MEDICINAL USE” (priority 2008, published 2011)
Where “and” joins values, the source holds several entries; their conditions need not be identical. Equal entries are not always repeated. Where two headings read alike, the source gives them in different places.

Tests used:
[1] = background statement; cited from earlier work
SD rats = assay: toxicity test in SD rats, four-week consecutive intragastric administration; conditions: for animals dead during 4 weeks administration: 10 rats per group; for nontoxic dosage: four-week consecutive intragastric administration
Protocol: 2. […] The tested samples are formulated into suspensions by milling with 0.5% CMC—Na; intragastric administration every day (10 ml/kg) for consecutive 4 weeks; on each day, after administration, the general conditions of the animals are observed, and weight and amount of ingestion are determined once every week. In 24 hours after the last administration, the rats are fasted overnight, blood samples are withdrawn via femoral arteries, and the rats are dissected, and the indexes of blood cytology and biochemics, gloss anatomy and histopathological examination are preformed.

[2] = tested on: hot plate pain threshold of mice; assay: hot plate pain threshold of mice; type: in vivo; conditions: for pain threshold(s) 0 h: 0 h (base threshold before administration); for pain threshold(s) 0.5 h: 0.5 h after administration; for pain threshold(s) 1 h: 1 h after administration
Protocol: On the basis of preliminary test, 90 healthy Kunming species of Mus musculus albus are selected, female, weight 18˜22 g, […], and each group of 10 mice, said tested groups comprising:
Each group of animals is pasted for 12 h, but drinking ad libitum. Mice are placed on a homoiothermal hot plate (55±0.5[…]), and the time of occurrence of licking foot is recorded as pain threshold. Appropriate mice (whose reaction time of pain is less than 60 seconds) are selected and randomly divided into groups, and pain thresholds are measured twice before administration and the average value is used as base pain threshold. At 0.5 h and 1 hour after intragastric administration of corresponding drugs, the pain threshold of each mouse is measured (if there are no reaction of pain in 60 seconds, then the threshold is considered as 60 second).
Using Microsoft EXCEL software, the average value of pain threshold of each tested group and the average value of control group are performed t-test analysis, and P<0.05 is considered as statistically significant difference.

[3] = tested on: hot plate pain threshold of mice; assay: hot plate pain threshold of mice; type: in vivo; conditions: 40 mg/kg ip, 0 h (base threshold before administration)
[4] = pharmacokinetic study in rats of ig administration; type: in vivo
[5] = ig 50 mg/kg, individual animals A-F, listed as R-type isomer

CC(C(=O)O)c1ccc2c(c1)CC(=O)c1ccccc1S2 (racemic) [RS, 10,11-dihydro-alpha-methyl-10-oxo-dibenzo[b,f]tiazem-2-acetic acid, reference compound]
abirritation, times more than Indomethacin, Diclofenac Sodium, Ketoprofen, mefenamic acid [1]: 3-28 times
animals dead during 4 weeks administration (SD rats; 80 mg/kg ig daily): 2 animals
gastrointestinal tract toxicity (SD rats; four-week ig, rats, S 80, 40, RS 80, R 480, 240, 120, R:S=6:1 320, 160, 80 mg/kg): produces significant gastrointestinal tract toxicity
nontoxic dosage (SD rats; rats): 40 mg/kg
pain threshold(s) 0 h ([2]; 40 mg/kg ig): 12.8 ± 3.7 s
pain threshold(s) 0.5 h ([2]; 40 mg/kg ig): 9.9 ± 2.7 s
pain threshold(s) 1 h ([2]; 40 mg/kg ig): 10.7 ± 5.7 s
pain threshold(s) 0 h ([2]; 80 mg/kg ig): 12.7 ± 3.1 s
pain threshold(s) 0.5 h ([2]; 80 mg/kg ig): 11.7 ± 5.2 s
pain threshold(s) 1 h ([2]; 80 mg/kg ig): 9.6 ± 3.5 s

C[C@@H](C(=O)O)c1ccc2c(c1)CC(=O)c1ccccc1S2 [R, R-10,11-dihydro-alpha-methyl-10-oxo-dibenzo[b,f]tiazem-2-acetic acid]
pain threshold(s) 0 h [3]: 15.2 ± 15.1 s
nontoxic dosage (SD rats; rats): 240 mg/kg
pain threshold(s) 0 h ([2]; 40 mg/kg ig): 17.6 ± 13.8 s
pain threshold(s) 0.5 h ([2]; 40 mg/kg ig): 12.0 ± 7.8 s
pain threshold(s) 0 h ([2]; 80 mg/kg ig): 21.5 ± 15.5 s
pain threshold(s) 1 h ([2]; 80 mg/kg ig): 17.5 ± 12.3 s
pain threshold(s) 0 h ([2]; 160 mg/kg ig): 22.0 ± 4.9 s
pain threshold(s) 0.5 h ([2]; 160 mg/kg ig): 24.1 ± 15.1 s
pain threshold(s) 1 h ([2]; 160 mg/kg ig): 27.3 ± 11.9 s
transformation between R-isomer and S-isomer during monitoring of blood drug level ([4]; ig): No transformation between R-isomer and S-isomer is detected
AUC(0-48) [4, 5]: 723.9 µg·h/mL and 239.0 µg·h/mL and 330.6 µg·h/mL and 814.3 µg·h/mL and 324.2 µg·h/mL and 1336.0 µg·h/mL
AUG(0-∞) [4, 5]: 772.8 mg/L*h and 337.7 mg/L*h and 818.7 mg/L*h and 325.6 mg/L*h and 1374.1 mg/L*h
CLz/F [4, 5]: 0.1 L/h/kg (3×) and 0.2 L/h/kg (2×) and 0.0 L/h/kg
Cmax [4, 5]: 260.8 µg/mL and 98.9 µg/mL and 67.8 µg/mL and 223.1 µg/mL and 131.5 µg/mL and 184.2 µg/mL
MRT(0-48) [4, 5]: 7.4 h and 2.2 h and 9.1 h and 5.4 h and 5.0 h and 10.3 h
Tmax [4, 5]: 1.0 h (2×) and 0.5 h (2×) and 0.3 h (2×)
t1/2z [4, 5]: 10.0 h and 2.2 h and 9.8 h and 7.8 h and 4.9 h and 9.6 h
AUG(0-∞) Mean ([4]; ig 50 mg/kg, mean of A-F): 647.5 mg/L*h
CLz/F Mean ([4]; ig 50 mg/kg, mean of A-F): 1.7 mL/min/kg
t1/2z Mean ([4]; ig 50 mg/kg, mean of A-F): 7.4 h
AUC(0-t) ([4]; rat, plasma, po, 50 mg/kg, ig 50 mg/kg, mean of A-F, read-out: AUC(0-48) Mean): 628 µg·h/mL
Cmax ([4]; rat, plasma, po, 50 mg/kg, ig 50 mg/kg, mean of A-F, read-out: Cmax Mean): 161 µg/mL
MRT last ([4]; rat, plasma, po, 50 mg/kg, ig 50 mg/kg, mean of A-F, read-out: MRT(0-48) Mean): 6.6 h
Tmax ([4]; rat, plasma, po, 50 mg/kg, ig 50 mg/kg, mean of A-F, read-out: Tmax Mean): 0.6 h
Vd/F ([4]; rat, plasma, po, 50 mg/kg, ig 50 mg/kg, mean of A-F, read-out: Vz/F Mean): 1 L/kg

C[C@H](C(=O)O)c1ccc2c(c1)CC(=O)c1ccccc1S2 [S, S-10,11-dihydro-alpha-methyl-10-oxo-dibenzo[b,f]tiazem-2-acetic acid]
animals dead during 4 weeks administration (SD rats; 40 mg/kg ig daily): one
animals dead during 4 weeks administration (SD rats; 80 mg/kg ig daily): four
nontoxic dosage (SD rats; rats): 20 mg/kg
pain threshold(s) 0 h ([2]; 40 mg/kg ig): 12.9 ± 5.0 s
pain threshold(s) 0.5 h ([2]; 40 mg/kg ig): 10.8 ± 2.7 s
pain threshold(s) 1 h ([2]; 40 mg/kg ig): 10.6 ± 4.6 s
pain threshold(s) 0 h ([2]; 80 mg/kg ig): 13.6 ± 9.6 s
pain threshold(s) 0.5 h ([2]; 80 mg/kg ig): 12.7 ± 6.9 s
pain threshold(s) 1 h ([2]; 80 mg/kg ig): 7.9 ± 1.8 s
